Publication PMC3465515 (Nuclear medicine and biology, 2012)
Like-named read-outs stand apart in the source and are kept apart here.

What was measured:
human ERβ = human ERβ (Homo sapiens, UniProt Q92731); experiment: competitive radiometric binding assay with [3H]estradiol, ERβ; conditions: for β/α ratio: ratio of RBA ERβ to RBA ERα
human ERα = target: T1, human ERα (Homo sapiens, UniProt P03372); experiment: competitive radiometric binding assay with [3H]estradiol, ERα
T1 sequence (P03372 1-595): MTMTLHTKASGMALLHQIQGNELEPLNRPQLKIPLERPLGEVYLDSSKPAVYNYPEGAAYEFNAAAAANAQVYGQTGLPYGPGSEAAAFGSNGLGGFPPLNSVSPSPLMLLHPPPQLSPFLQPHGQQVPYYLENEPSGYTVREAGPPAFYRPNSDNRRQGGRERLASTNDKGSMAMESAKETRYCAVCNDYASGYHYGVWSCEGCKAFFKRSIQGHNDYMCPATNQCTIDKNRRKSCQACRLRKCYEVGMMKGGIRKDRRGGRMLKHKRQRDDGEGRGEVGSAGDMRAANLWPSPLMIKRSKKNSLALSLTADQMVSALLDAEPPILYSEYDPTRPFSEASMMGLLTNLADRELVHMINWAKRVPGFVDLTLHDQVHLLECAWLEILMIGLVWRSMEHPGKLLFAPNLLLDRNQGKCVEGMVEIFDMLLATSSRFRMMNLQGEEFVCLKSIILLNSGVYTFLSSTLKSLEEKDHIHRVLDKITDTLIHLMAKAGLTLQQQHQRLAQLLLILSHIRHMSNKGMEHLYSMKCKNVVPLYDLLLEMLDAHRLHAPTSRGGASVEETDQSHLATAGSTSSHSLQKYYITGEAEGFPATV

[1] = estradiol = 100, purified full-length human ERβ, 18-24 h at 0 °C
[2] = estradiol = 100, purified full-length human ERα, 18-24 h at 0 °C

Chain of human ERβ (Q92731 whole entry): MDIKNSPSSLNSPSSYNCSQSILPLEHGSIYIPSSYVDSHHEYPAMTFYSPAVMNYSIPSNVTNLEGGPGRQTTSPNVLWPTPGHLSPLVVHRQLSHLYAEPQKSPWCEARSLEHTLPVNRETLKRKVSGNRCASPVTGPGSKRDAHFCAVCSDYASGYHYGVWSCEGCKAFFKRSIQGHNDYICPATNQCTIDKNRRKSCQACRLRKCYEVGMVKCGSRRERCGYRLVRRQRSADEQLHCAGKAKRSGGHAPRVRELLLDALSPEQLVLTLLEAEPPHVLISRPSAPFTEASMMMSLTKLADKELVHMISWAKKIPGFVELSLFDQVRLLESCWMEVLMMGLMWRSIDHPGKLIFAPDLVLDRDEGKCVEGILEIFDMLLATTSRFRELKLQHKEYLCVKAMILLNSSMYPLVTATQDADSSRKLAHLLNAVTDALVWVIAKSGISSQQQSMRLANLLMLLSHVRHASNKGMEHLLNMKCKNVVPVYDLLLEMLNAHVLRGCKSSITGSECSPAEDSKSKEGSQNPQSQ

## C=Cc1cc(O)cc2nc(-c3ccc(O)c(F)c3)oc12 [ERB-041]
Human ERβ
  Relative Binding Affinity (RBA) ERβ: 3.22 ± 0.91%
  β/α ratio: 460
Human ERα
  Relative Binding Affinity (RBA) ERα: 0.007 ± 0.001%

## N#C[C@H](c1ccc(O)cc1)[C@@H](CCF)c1ccc(O)cc1 [FEDPN]
Human ERβ; [1]
  Relative Binding Affinity (RBA) ERβ: 8.74 ± 1.87%
Human ERβ
  β/α ratio: 20
Human ERα; [2]
  Relative Binding Affinity (RBA) ERα: 0.43 ± 0.09%

## C=C[C@@]12CCc3cc(O)ccc3[C@H]1CC[C@@]1(C)[C@H]2CC[C@@H]1O [compound 1, 8β-Vinyl-estra-1,3,5(10)-triene-3,17β-diol]
Human ERβ; [1]
  Relative Binding Affinity (RBA) ERβ: 105%
Human ERβ
  β/α ratio: 350
Human ERα; [2]
  Relative Binding Affinity (RBA) ERα: 0.30%

## C[C@]12CC[C@@H]3c4ccc(O)cc4CC[C@@]3(CCF)[C@@H]1CC[C@@H]2O [compound 6, 8β-(2-Fluoroethyl)estra-1,3,5(10)-trien-3,17β-diol]
Human ERβ; [1]
  Relative Binding Affinity (RBA) ERβ: 8.27 ± 0.98%
Human ERβ
  β/α ratio: 179
Human ERβ; vs 8β-vinylestradiol
  fold lower affinity than parent 8BVE2, ERβ: ~10 fold
Human ERα; [2]
  Relative Binding Affinity (RBA) ERα: 0.046 ± 0.005%
Human ERα; vs 8β-vinylestradiol
  fold lower affinity than parent 8BVE2, ERα: ~10 fold
